T/C data for 21 molecules are collected here from PubChem BioAssay AID278 (DTP/NCI, 2004).

Several values for one entry are separate records, joined by “and”; a condition that tells them apart may be missing. Identical values can stand only once. Records with an inconclusive call do not appear.

The assay relates to nude mice, A549 intrarenal xenograft, tumor weight change. As to the kind of experiment: NCI In Vivo Anticancer Drug Screen. Data for tumor model A549 Human Adenocarcinoma of Lung with characteristics of Type II Alveolar Epithelial cells (intrarenal inoculation) in NU/NU BALB/C (nude) mice. Conditions: endpoint: mean tumor weight change, higher = larger tumour. A digest of the protocol: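 Mice bearing transplantable tumors were treated and survival or tumor size recorded. Values are given as treated-group measurement divided by vehicle-control measurement (T/C).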

Where [1] appears, read: dose: 25.0 mg/kg/injection, schedule: Q04DX003 (ip), vehicle: saline with Tween-80.
Setting [2] is: dose: 50.0 mg/kg/injection, schedule: Q04DX003 (ip), vehicle: saline with Tween-80.
[3] abbreviates: dose: 100.0 mg/kg/injection, schedule: Q04DX003 (ip), vehicle: saline with Tween-80.
[4] abbreviates: dose: 200.0 mg/kg/injection, schedule: Q04DX003 (ip), vehicle: saline with Tween-80.
Setting [5] is: dose: 150.0 mg/kg/injection, schedule: Q04DX003 (ip), vehicle: Klucel (hydroxypropylcellulose) (HPC).
Setting [6] is: dose: 300.0 mg/kg/injection, schedule: Q04DX003 (ip), vehicle: Klucel (hydroxypropylcellulose) (HPC).
[7] abbreviates: dose: 37.5 mg/kg/injection, schedule: Q04DX003 (ip), vehicle: Klucel (hydroxypropylcellulose) (HPC).
[8] abbreviates: dose: 75.0 mg/kg/injection, schedule: Q04DX003 (ip), vehicle: Klucel (hydroxypropylcellulose) (HPC).

`O=C(Nc1cccc(O)c1)C(Cl)=C(Cl)Cl`: the T/C was 46 % of control (dose: 18.0 mg/kg/injection, schedule: Q04DX003 (ip), vehicle: other); 108 % of control (dose: 25.0 mg/kg/injection, schedule: Q04DX003 (ip), vehicle: DMSO); 50 % of control and 74 % of control (dose: 30.0 mg/kg/injection, schedule: Q04DX003 (ip), vehicle: other); 18 % of control (dose: 50.0 mg/kg/injection, schedule: Q04DX003 (ip), vehicle: DMSO); 76 % of control (dose: 50.0 mg/kg/injection, schedule: Q04DX003 (ip), vehicle: other).
For the molecule `O=S(=O)(c1cccc(N=C=S)c1)c1cccc(N=C=S)c1`, the T/C (dose: 30.0 mg/kg/injection, schedule: Q04DX003 (ip), vehicle: Klucel (hydroxypropylcellulose) (HPC)) was 67 % of control.
As to `COC12[C@@H]3N[C@@H]3CN1C1=C(C(=O)C(NCCSSCCNC3=C(C)C(=O)C4=C(C3=O)C(COC(N)=O)[C@]3(OC)C5N[C@@H]5CN43)=C(C)C1=O)[C@@H]2COC(N)=O` (stereo partly drawn), the T/C by setting is: (dose: 1.57 mg/kg/injection, schedule: Q04DX003 (ip), vehicle: DMSO) 29 % of control; (dose: 3.13 mg/kg/injection, schedule: Q04DX003 (ip), vehicle: DMSO) -77 % of control; (dose: 6.25 mg/kg/injection, schedule: Q04DX003 (ip), vehicle: DMSO) -33 % of control; (dose: 12.5 mg/kg/injection, schedule: Q04DX003 (ip), vehicle: DMSO) 2 % of control.
For the molecule `O=C1C2CC(Cl)C(SSC3CC4C(=O)N(SC(Cl)(Cl)C(Cl)Cl)C(=O)C4CC3Cl)CC2C(=O)N1SC(Cl)(Cl)C(Cl)Cl` (stereo not drawn), the T/C runs as follows: under setting [1], 123 % of control; under setting [2], 78 % of control; under setting [3], 98 % of control; under setting [4], 73 % of control.
Take `CC[C@]1(O)C[C@H]2CN(CCc3c([nH]c4ccccc34)[C@@](C(=O)OC)(c3cc4c(cc3OC)N(C)[C@H]3[C@@](O)(C(=O)OC)[C@H](OC(C)=O)[C@]5(CC)C=CCN6CC[C@]43[C@@H]65)C2)C1`: the T/C is -2 % of control (dose: 0.67 mg/kg/injection, schedule: Q04DX003 (ip), vehicle: Klucel (hydroxypropylcellulose) (HPC)) and -49 % of control (dose: 1.0 mg/kg/injection, schedule: Q04DX003 (ip), vehicle: Klucel (hydroxypropylcellulose) (HPC)).
Take `Oc1c(Cl)cc(Cl)cc1C=NCCSc1ccc(Cl)cc1`: the T/C runs as follows: under setting [5], 90 % of control; under setting [6], 100 % of control; (dose: 600.0 mg/kg/injection, schedule: Q04DX003 (ip), vehicle: Klucel (hydroxypropylcellulose) (HPC)) 83 % of control.
On to `Nc1ccn([C@@H](C=O)C[C@@H](C=O)CO)c(=O)n1`, for which the T/C is, setting by setting: (dose: 37.5 mg/kg/injection, schedule: Q04DX003 (ip), vehicle: saline with Tween-80) 42 % of control; (dose: 75.0 mg/kg/injection, schedule: Q04DX003 (ip), vehicle: saline with Tween-80) 245 % of control; (dose: 150.0 mg/kg/injection, schedule: Q04DX003 (ip), vehicle: saline with Tween-80) 66 % of control; (dose: 300.0 mg/kg/injection, schedule: Q04DX003 (ip), vehicle: saline with Tween-80) 216 % of control and 82 % of control; (dose: 600.0 mg/kg/injection, schedule: Q04DX003 (ip), vehicle: saline with Tween-80) 48 % of control; (dose: 1200.0 mg/kg/injection, schedule: Q04DX003 (ip), vehicle: saline with Tween-80) 26 % of control.
As for `COC1CC2C=C(C)/C=C/C=C/C(=O)NC(c3ccccc3)C/C=C/CCC(O)CC(=O)C2=C1O` (stereo not drawn), the T/C reads like this: under setting [7], 17 % of control; under setting [8], 115 % of control; under setting [5], 113 % of control.
`CNC(=O)N(C)N=NCCCl`: the T/C was -19 % of control under setting [3] and -66 % of control under setting [4].
Take `CC1=C(C(N)=O)C(c2ccccc2)NC(=S)N1` (stereo not drawn): the T/C was 66 % of control under setting [7], 92 % of control under setting [8], 83 % of control under setting [5] and 181 % of control under setting [6].
For `c1nnc(NCNc2nncs2)s1`, the T/C is, setting by setting: (dose: 100.0 mg/kg/injection, schedule: Q04DX003 (ip), vehicle: suspension in saline) 61 % of control; (dose: 144.0 mg/kg/injection, schedule: Q04DX003 (ip), vehicle: Klucel (hydroxypropylcellulose) (HPC)) 36 % of control; (dose: 200.0 mg/kg/injection, schedule: Q04DX003 (ip), vehicle: suspension in saline) 23 % of control; (dose: 240.0 mg/kg/injection, schedule: Q04DX003 (ip), vehicle: Klucel (hydroxypropylcellulose) (HPC)) 23 % of control; (dose: 400.0 mg/kg/injection, schedule: Q04DX003 (ip), vehicle: suspension in saline) 20 % of control.
Regarding `C=C(Cl)C(=NC(C)(C)C)Nc1ccccc1C`, the T/C by setting is: (dose: 10.0 mg/kg/injection, schedule: Q04DX003 (ip), vehicle: Klucel + Tween-80) 73 % of control; (dose: 20.0 mg/kg/injection, schedule: Q04DX003 (ip), vehicle: Klucel + Tween-80) 68 % of control.
Consider `COC(=O)C1(F)C(=O)NC(=O)NC1OC` (stereo not drawn), for which the T/C by setting is: (dose: 400.0 mg/kg/injection, schedule: Q04DX003 (ip), vehicle: Klucel (hydroxypropylcellulose) (HPC)) 115 % of control; (dose: 800.0 mg/kg/injection, schedule: Q04DX003 (ip), vehicle: Klucel (hydroxypropylcellulose) (HPC)) 116 % of control; (dose: 1600.0 mg/kg/injection, schedule: Q04DX003 (ip), vehicle: Klucel (hydroxypropylcellulose) (HPC)) 94 % of control.
Regarding `CN=C(N)c1ccc(N=C(N)c2ccc(C(N)=Nc3ccc(C(N)=NC)cc3)cc2)cc1`, the T/C by setting is: (dose: 13.0 mg/kg/injection, schedule: Q06HX010 (ip), vehicle: water) 70 % of control; (dose: 20.0 mg/kg/injection, schedule: Q06HX010 (ip), vehicle: water) 98 % of control.
Turning to `[CH3][Sn]([CH3])([Cl])[c]1cc[c]([Sn]([CH3])([CH3])[Cl])cc1`, the T/C by setting is: (dose: 1.25 mg/kg/injection, schedule: Q04DX003 (ip), vehicle: saline) 84 % of control; (dose: 2.5 mg/kg/injection, schedule: Q04DX003 (ip), vehicle: saline) 160 % of control; (dose: 5.0 mg/kg/injection, schedule: Q04DX003 (ip), vehicle: saline) 70 % of control.
Take `Nc1ccn([C@@H]2C=C(CO)[C@@H](O)[C@H]2O)c(=O)n1`: the T/C is, setting by setting: (dose: 0.67 mg/kg/injection, schedule: Q01DX009 (ip), vehicle: saline) 58 % of control; (dose: 1.0 mg/kg/injection, schedule: Q01DX009 (ip), vehicle: saline) 20 % of control and 40 % of control; (dose: 1.5 mg/kg/injection, schedule: Q01DX009 (ip), vehicle: saline) -59 % of control; (dose: 2.0 mg/kg/injection, schedule: Q01DX009 (ip), vehicle: saline) 8 % of control.
Turning to `COc1cc2c(cc1OC)[C@@H]1C(=O)c3ccc4c(c3O[C@@H]1CO2)C[C@H](C(C)C)O4`, the T/C is, setting by setting: (dose: 21.25 mg/kg/injection, schedule: Q04DX003 (ip), vehicle: Klucel (hydroxypropylcellulose) (HPC)) 90 % of control; (dose: 42.5 mg/kg/injection, schedule: Q04DX003 (ip), vehicle: Klucel (hydroxypropylcellulose) (HPC)) 87 % of control; (dose: 85.0 mg/kg/injection, schedule: Q04DX003 (ip), vehicle: Klucel (hydroxypropylcellulose) (HPC)) 37 % of control.
On to `COc1ccc2oc(-c3ccc(Cl)cc3)c(N3CCN(C)CC3)c2c1`, for which the T/C was 21 % of control (dose: 75.0 mg/kg/injection, schedule: Q04DX003 (ip), vehicle: saline) and 24 % of control (dose: 150.0 mg/kg/injection, schedule: Q04DX003 (ip), vehicle: saline).
As for `COc1ccc(C=C(C(=O)CCN(C)C)C(=O)CCN(C)C)cc1`, the T/C (dose: 50.0 mg/kg/injection, schedule: Q04DX003 (ip), vehicle: saline) was 96 % of control and the T/C (dose: 200.0 mg/kg/injection, schedule: Q04DX003 (ip), vehicle: saline) was 101 % of control.
`CC(=O)C[n+]1ccccc1Sc1ccc(Cl)cc1`: the T/C was 107 % of control (dose: 12.5 mg/kg/injection, schedule: Q04DX003 (ip), vehicle: saline with Tween-80); 80 % of control under setting [1]; 93 % of control under setting [2]; 79 % of control under setting [3].
`CCCCCC[Se][Se]CCCCCC`: the T/C is 106 % of control (dose: 10.0 mg/kg/injection, schedule: Q04DX003 (ip), vehicle: Klucel (hydroxypropylcellulose) (HPC)); 38 % of control (dose: 20.0 mg/kg/injection, schedule: Q04DX003 (ip), vehicle: Klucel (hydroxypropylcellulose) (HPC)); 70 % of control (dose: 40.0 mg/kg/injection, schedule: Q04DX003 (ip), vehicle: Klucel (hydroxypropylcellulose) (HPC)); 71 % of control (dose: 80.0 mg/kg/injection, schedule: Q04DX003 (ip), vehicle: Klucel (hydroxypropylcellulose) (HPC)).
